From patent US12226412B2, “Heteroaryl-ketone fused azadecalin glucocorticoid receptor modulators” (Corcept Therapeutics, Inc., priority 2012, dated 2025)

How the values were obtained:
[1] = target: T1, human recombinant GR (Homo sapiens, UniProt P04150); experiment: Human glucocorticoid receptor (GR) fluorescence polarisation (FP) binding assay; details: human recombinant GR, fluorescence polarisation binding assay; read-out: GR binding
T1 construct: purchased PanVera P2812
T1 sequence (P04150 1-777): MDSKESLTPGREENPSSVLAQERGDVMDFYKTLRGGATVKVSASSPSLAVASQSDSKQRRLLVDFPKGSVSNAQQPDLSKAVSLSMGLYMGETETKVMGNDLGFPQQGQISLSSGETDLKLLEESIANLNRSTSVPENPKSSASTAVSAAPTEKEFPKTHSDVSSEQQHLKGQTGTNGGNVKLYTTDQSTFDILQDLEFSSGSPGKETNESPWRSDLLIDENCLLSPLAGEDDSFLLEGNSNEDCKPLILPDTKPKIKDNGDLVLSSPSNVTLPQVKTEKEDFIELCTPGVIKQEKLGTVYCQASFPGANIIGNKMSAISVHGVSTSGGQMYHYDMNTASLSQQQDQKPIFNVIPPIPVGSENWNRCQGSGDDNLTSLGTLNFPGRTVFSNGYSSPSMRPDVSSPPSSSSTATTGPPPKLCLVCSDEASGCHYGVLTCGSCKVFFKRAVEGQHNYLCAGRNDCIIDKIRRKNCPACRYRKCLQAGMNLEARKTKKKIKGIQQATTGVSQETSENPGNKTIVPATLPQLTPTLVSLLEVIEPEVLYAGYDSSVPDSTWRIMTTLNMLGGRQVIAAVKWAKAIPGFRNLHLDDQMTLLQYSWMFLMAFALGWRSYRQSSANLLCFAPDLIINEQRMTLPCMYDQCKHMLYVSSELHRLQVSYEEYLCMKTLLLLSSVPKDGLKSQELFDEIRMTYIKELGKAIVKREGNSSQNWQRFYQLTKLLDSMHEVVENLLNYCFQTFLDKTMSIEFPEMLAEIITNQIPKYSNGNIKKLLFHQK
Procedure, shortened: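 Competition fluorescence polarisation: 0.5 nM GS Red labelled glucocorticoid and 1 nM recombinant human GR with 8-point half-log compound series, 1% DMSO, 4 h room temperature, potassium phosphate pH 7.4 buffer with molybdate, EDTA, DTT. Affinity derived from the drop in polarisation, normalised to blank wells.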

[2] = test system: induction of TAT by dexamethasone in HepG2 cells; experiment: HepG2 tyrosine aminotransferase (TAT) assay; assay type: cell-based, human; details: HepG2 cells, challenge of 100 nM dexamethasone; Ki from IC50 by Cheng and Prusoff equation

Ki [1] [nM]	SMILES	Ki [2] [nM]
< 0.5	Cc1ccnc(C(=O)[C@]23Cc4cnn(-c5ccc(F)cc5)c4C=C2CCN(S(=O)(=O)c2cn(C)cn2)C3)c1 [Example 11V, (R)-(1-(4-fluorophenyl)-6-((1-methyl-1H-imidazol-4-yl)sulfonyl)-4,4a,5,6,7,8-hexahydro-1H-pyrazolo[3,4-g]isoquinolin-4a-yl)(4-methylpyridin-2-yl)methanone]	20 to 100
< 0.5	CCn1cc(S(=O)(=O)N2CCC3=Cc4c(cnn4-c4ccc(F)cc4)C[C@]3(C(=O)c3cc(C(F)(F)F)ccn3)C2)nn1 [Example 11CM, (R)-(6-((1-ethyl-1H-1,2,3-triazol-4-yl)sulfonyl)-1-(4-fluorophenyl)-4,4a,5,6,7,8-hexahydro-1H-pyrazolo[3,4-g]isoquinolin-4a-yl)(4-(trifluoromethyl)pyridin-2-yl)methanone]	< 20
